# Source: ChEMBL document CHEMBL4819042, “Aromatic and Aliphatic Apiuronides from the Bark of Cinnamomum cassia” (J Nat Prod, 2021)
# The source made the active and inactive calls. The rule behind the calls is not given here.
# Test system: Mus musculus
# Assay: Analgesic activity against paclitaxel-induced cold allodynia in C57BL/6 mouse model at 10 mg/kg, po administered at day 14 and day 25 of post paclitaxel stimulation and measured after 1 hr
# Format: functional, organism-based
row,SMILES,Activity
1,CC(C)[C@@]1(O)CC2(O)[C@@]3(O)[C@]45O[C@](O)(C[C@@]2(C)[C@@]4(O)CC[C@H](C)[C@H]5O)[C@@]31C,Active
2,COc1cc([C@H]2OC[C@H]3[C@@H]2CO[C@@H]3c2cc(OC)c(O)c(OC)c2)cc(OC)c1O,Active
3,COc1cc(O[C@@H]2O[C@H](CO[C@@H]3OC[C@](O)(CO)[C@H]3O)[C@@H](O)[C@H](O)[C@H]2O)cc(OC)c1OC,Active
4,CC1=C(C(C)CO[C@@H]2O[C@H](CO)[C@@H](O)[C@H](O)[C@H]2O)C[C@@]2(O)[C@@]3(C)CC(=O)O[C@@H]4[C@@H](C)CC[C@@]3(O)[C@@]4(O)[C@@]12O (some centres undefined),Active
